Data as given in patent US9029389B2 (Institut Pasteur Korea, priority 2011, dated 2015).

Assays:
[1] = test system: production of LTB4 in human PBMC (peripheral blood mononuclear cells); experiment: Production of LTB4 in PBMC (LTB4 secretion assay); assay type: cell-based; settings: 12 point dose response in duplicate
Procedure: Frozen human PBMC (peripheral blood mononuclear cells, AllCells, Cat#[…]) was diluted 50 times with fresh culture media (RPMI 1640 supplemented with 10% FBS, 2 mM L-alanyl-L-glutamine). Cells were harvested by centrifugation and resuspended in fresh culture media to a concentration of 5×10^6 cells per milliliter. 140 ul of cell suspension was then liquated to each well (96-well plate). After incubation at 37° C. for 1 hr under 5% CO2, 10 ul of serially diluted compounds (in 100% DMSO) and 10 ul of arachidonic acid to a final concentration of 30 uM were added and further incubated for 1 hr at 37° C. for 1 hr under 5% CO2. Then, inducers, such as A23187 (Ionophor), sodium arsenite, sodium chloride and/or Anti-DNP IgE, were added in a volume of 40 ul and cells were incubated at 37° C. for […]. Culture supernatant was harvested by centrifugation and LTB4 levels were quantified using LTB4 EIA kit (Cayman, Cat#520111). Six of the 378 compounds tested against the 5-LO enzyme in vitro were also selected to be tested for their activity in a human cellular assay. Compounds were tested in a 12 point dose response in duplicate.

Human 5-lipoxygenase = molecular target: T1, Human 5-lipoxygenase (Homo sapiens, UniProt P09917); experiment: Activity of compounds against 5-LO enzyme (LTB4 measurement and/or fluorescence method); assay type: biochemical; settings: for inhibition at 10 µM: 5-LO, single concentration of 10 uM in duplicate; for IC50: 6 or 11 point dose response in duplicate
T1 construct: purchased Cayman 60402; host or cells: insect cells
T1 sequence (P09917 1-674): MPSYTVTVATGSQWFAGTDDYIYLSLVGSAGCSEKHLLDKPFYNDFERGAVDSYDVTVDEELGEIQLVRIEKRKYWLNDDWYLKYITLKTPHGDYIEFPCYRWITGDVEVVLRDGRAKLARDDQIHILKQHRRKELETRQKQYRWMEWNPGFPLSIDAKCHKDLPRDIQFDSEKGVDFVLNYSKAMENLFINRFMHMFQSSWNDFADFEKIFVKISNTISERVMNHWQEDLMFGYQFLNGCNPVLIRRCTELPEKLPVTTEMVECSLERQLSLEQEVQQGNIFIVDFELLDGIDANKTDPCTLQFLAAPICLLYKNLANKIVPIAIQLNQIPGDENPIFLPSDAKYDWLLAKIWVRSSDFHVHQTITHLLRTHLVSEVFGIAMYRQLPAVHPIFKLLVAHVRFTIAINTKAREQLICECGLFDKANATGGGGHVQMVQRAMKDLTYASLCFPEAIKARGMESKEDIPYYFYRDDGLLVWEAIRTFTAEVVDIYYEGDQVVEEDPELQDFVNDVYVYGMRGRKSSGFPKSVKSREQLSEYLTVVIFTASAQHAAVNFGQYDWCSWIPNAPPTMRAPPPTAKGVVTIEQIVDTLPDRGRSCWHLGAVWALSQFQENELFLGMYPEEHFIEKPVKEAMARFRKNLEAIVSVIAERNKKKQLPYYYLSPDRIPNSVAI
Summary of the method: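 Insect-cell human 5-LO preincubated 15 min at RT with compound (pH 7.4, 2 mM CaCl2, 0.1 mM ATP, 1% DMSO), then 3 uM arachidonic acid for 5 min at 37 °C; LTB4 quantified by EIA and/or LC/MS/MS. Alternatively, fluorescence of 5-HpETE via H2DCFDA, 100 uM ATP, 3 uM arachidonic acid, 5 min, RT; single 10 uM screen then 6- or 11-point IC50.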

M. tuberculosis H37Rv = experiment: Acute TB mouse model of infection, bacterial load in lungs; assay type: in vivo, Mycobacterium tuberculosis; settings: for Log10CFU: 4 weeks of treatment
[2] = test system: inflammatory lesions in the lungs; experiment: Acute TB mouse model of infection, histopathological analysis of lung tissue; assay type: in vivo, BalbC mice; settings: TB-infected mice, Hematoxylin and Eosin staining, compared with even INH treatment (FIG. 1)
Procedure: The effect of compound 127 on TB-infected mice was compared to that of the reference compound Isoniazid (INH). 8-week old female BalbC mice were infected with 6×10^5 M. tuberculosis H37Rv via intranasal instillation. Mice were sacrificed at day 1 to control the number of CFU in the lungs. In the acute model of infection, mice were treated for 4 weeks, starting at day 1. Compounds were freshly dissolved in a 0.5% methylcellulose solution and administered by oral gavage 5 times/week. Bacterial load was assessed in lungs after homogenizing the organs in 1×PBS. Serial dilutions of organ homogenates were spread on Middlebrook 7H11 plates and CFU were determined after 3 weeks incubation at 37° C. under 5% CO2. Histopathological analysis of lung tissue was performed by Hematoxylin and Eosin staining.

| SMILES | melting point | EC50 [1] [nM] | inhibition at 10 µM (Human 5-lipoxygenase) [%] | IC50 (Human 5-lipoxygenase) [nM] | also measured |
| --- | --- | --- | --- | --- | --- |
| CCc1nc2ccc(Cl)cn2c1C(=O)N(C)Cc1ccc(N2CCN(c3ccc(F)cc3)CC2)cc1 [compound 314, 6-Chloro-2-ethyl-N-(4-(4-(4-fluorophenyl)piperazin-1-yl)benzyl)-N-methylimidazo[1,2-a]pyridine-3-carboxamide] | 148 to 149 °C | < 1000 | > 69 | 1000 to 20000 |  |
| CCc1nc2ccc(Cl)cn2c1C(=O)N1CCC(OCc2ccc(OC(F)(F)F)cc2)CC1 [compound 313, (6-Chloro-2-ethylimidazo[1,2-a]pyridin-3-yl)(4-(4-(trifluoromethoxy)benzyloxy)piperidin-1-yl)methanone] |  | < 1000 | > 69 | 1000 to 20000 |  |
| CCc1nc2cc([N+](=O)[O-])ccn2c1C(=O)NCc1ccc(N2CCC(Oc3ccc(OC(F)(F)F)cc3)CC2)cc1 [compound 312, 2-Ethyl-7-nitro-N-(4-(4-(4-(trifluoromethoxy)phenoxy)piperidin-1-yl)benzyl)imidazo[1,2-a]pyridine-3-carboxamide] |  | < 1000 | > 69 | < 1000 |  |
| CCc1nc2ccc(Cl)cn2c1CNc1ccc(N2CCN(c3ccc(F)cc3)CC2)cc1 [compound 311, N-((6-Chloro-2-ethylimidazo[1,2-a]pyridin-3-yl)methyl)-4-(4-(4-fluorophenyl)piperazin-1-yl)aniline] | 191 to 192 °C | 1000 to 20000 | > 69 | < 1000 |  |
| CCc1nc2cc(Cl)ccn2c1C(=O)NCc1ccc2oc(-c3ccc(OC(F)(F)F)cc3)nc2c1 [compound 187, 7-Chloro-2-ethyl-N-((2-(4-(trifluoromethoxy)phenyl)benzo[d]oxazol-5-yl)methyl)imidazo[1,2-a]pyridine-3-carboxamide] |  | 1000 to 20000 | < 40 |  |  |
| CCc1nc2cc(Cl)ccn2c1C(=O)NCc1ccc(N2CCN(c3ccc(F)cc3)CC2)cc1 [compound 127, 7-Chloro-2-ethyl-N-(4-(4-(4-fluorophenyl)piperazin-1-yl)benzyl)imidazo[1,2-a]pyridine-3-carboxamide] | 212 to 213 °C | < 1000 | > 69 | > 20000 | Log10CFU (M. tuberculosis H37Rv; 50 mg/kg oral gavage 5 times/week): 6.47 Log10CFU; reduction of CFU compared to untreated mice (M. tuberculosis H37Rv; 50 mg/kg, after 4 weeks of treatment): ~1 log CFU; number and size of inflammatory lesions in the lungs [2]: significant reduction in the number and size of inflammatory lesions in the lungs |
| CCc1nc2ccc(Cl)cn2c1C(=O)NCc1ccc(C2CCOCC2)cc1 [compound 363, 6-chloro-2-ethyl-N-(4-(tetrahydro-2H-pyran-4-yl)benzyl)imidazo[1,2-a]pyridine-3-carboxamide] | > 195.5 °C (dec.) |  | < 40 |  |  |
| CCc1nc2cc(Cl)ccn2c1C(=O)NCc1ccc(N2CCC(Cc3ccccc3)CC2)cc1 [compound 208, N-(4-(4-Benzylpiperidin-1-yl)benzyl)-7-chloro-2-ethylimidazo[1,2-a]pyridine-3-carboxamide] | 63.8 °C |  | > 69 | 1000 to 20000 |  |
| NNC(=O)c1ccncc1 [INH, Isoniazid, reference compound] |  |  |  |  | Log10CFU (M. tuberculosis H37Rv; 25 mg/kg oral gavage 5 times/week): 5.0 Log10CFU |
| CCNC(=O)c1c(CC)nc2ccc(Cl)cn12 [compound 238, 6-Chloro-N,2-diethylimidazo[1,2-a]pyridine-3-carboxamide] | 176.7 °C |  | < 40 |  |  |
| CCc1nc2c(F)cccn2c1C(=O)NCc1ccc(N2CCOCC2)cc1 [compound 242, 2-Ethyl-8-fluoro-N-(4-morpholinobenzyl)imidazo[1,2-a]pyridine-3-carboxamide] | 197.3 °C |  | < 40 |  |  |
| CCc1nc2cc(Cl)ccn2c1C(=O)NCc1ccc(Oc2ccc(Cl)cc2)cc1 [compound 161, 7-Chloro-N-(4-(4-chlorophenoxy)benzyl)-2-ethylimidazo[1,2-a]pyridine-3-carboxamide] | 167.1 to 167.9 °C |  | > 69 | 1000 to 20000 |  |
| CCc1nc2ccc(C)cn2c1C(=O)NCc1ccc(N2CCN(c3ccc(F)cc3)CC2)cc1 [compound 231, 2-Ethyl-N-(4-(4-(4-fluorophenyl)piperazin-1-yl)benzyl)-6-methylimidazo[1,2-a]pyridine-3-carboxamide] | 187.6 °C |  | > 69 | 1000 to 20000 |  |
| CCc1nc2cc(Cl)ccn2c1C(=O)NCc1ccc(N2CCC(CO)CC2)cc1 [compound 212, 7-Chloro-2-ethyl-N-(4-(4-(hydroxymethyl)piperidin-1-yl)benzyl)imidazo[1,2-a]pyridine-3-carboxamide] | 179.8 °C |  | < 40 |  |  |
| CCc1nc2ccc(Cl)cn2c1C(=O)NCc1cc2cc(Cl)ccc2o1 [compound 366, 6-chloro-N-((5-chlorobenzofuran-2-yl)methyl)-2-ethylimidazo[1,2-a]pyridine-3-carboxamide] | 223.5 to 225.6 °C |  | < 40 |  |  |
| CCc1nc2cc(Cl)ccn2c1C(=O)NCc1ccc(N2C=CC(=O)CC2)cc1 [compound 201, 7-Chloro-2-ethyl-N-(4-(4-oxo-3,4-dihydropyridin-1(2H)-yl)benzyl)imidazo[1,2-a]pyridine-3-carboxamide] | 201.3 to 202.8 °C |  | < 40 |  |  |
| CCc1nc2cc(Cl)ccn2c1C(=O)NCc1ccc(N2CC(Cc3ccc(F)cc3)OC2=O)cc1 (centres unmarked) [compound 377, 7-chloro-2-ethyl-N-(4-(5-(4-fluorobenzyl)-2-oxooxazolidin-3-yl)benzyl)imidazo[1,2-a]pyridine-3-carboxamide] | > 96.9 °C (dec.) |  | < 40 |  |  |
| CCc1nc2cc(Cl)ccn2c1C(=O)NCc1ccc(N2CC(C)CC(C)C2)cc1 (centres unmarked) [compound 198, 7-Chloro-N-(4-(3,5-dimethylpiperidin-1-yl)benzyl)-2-ethylimidazo[1,2-a]pyridine-3-carboxamide] | 181.5 to 182.8 °C |  | 40 to 69 |  |  |
| CCc1nc2ccc(Cl)cn2c1C(=O)NCc1ccc(N2CCC(COC)CC2)cc1 [compound 247, 6-Chloro-2-ethyl-N-(4-(4-(methoxymethyl)piperidin-1-yl)benzyl)imidazo[1,2-a]pyridine-3-carboxamide] | 162.1 °C |  | 40 to 69 |  |  |
| CCc1nc2ccc(Cl)cn2c1C(=O)NCc1ccc(C2CCN(C(=O)Cc3ccc(F)cc3)CC2)cc1 [compound 327, 6-chloro-2-ethyl-N-(4-(1-(2-(4-fluorophenyl)acetyl)piperidin-4-yl)benzyl)imidazo[1,2-a]pyridine-3-carboxamide] | 216.2 to 220.7 °C |  | 40 to 69 |  |  |
